For experiment [1], the target named is FABLE. Description: fluorescence titration, single-site binding model. On the set-up: species or system synthetic construct.
Experiment [2] addresses FABLE. Description: fluorescence titration, global single-site fit. The format is binding, synthetic construct.

The results in this text go back to article PMC13245809 (Nature chemistry, 2026).

`CCN(CC)c1ccc2c(C(F)(F)F)cc(=O)oc2c1` [Cou481] registered a dissociation constant Kd on FABLE [1] of 5.8 ± 0.7 µM. `CN(C)c1ccc2c(C(F)(F)F)cc(=O)oc2c1` [Cou485, 7-(dimethylamino)-4-(trifluoromethyl)coumarin]: the Kd on FABLE [2] was determined as 27.8 ± 1 µM. In turn, `O=c1cc(C(F)(F)F)c2cc3c4c(c2o1)CCCN4CCC3` [Cou540a] displayed an equilibrium dissociation constant (Kd) on FABLE [1] of 2 ± 0.1 µM.
